This assay has as its system Methylophilus methylotrophus amidase (acylamide amido hydrolase E.C. No. 3-5-1-4). The assay is described as follows: Methylophilus methylotrophus amidase properties (Km). In kind it is biochemical. To be noted: amidase induced in Methylophilus methylotrophus; substrate as named.

For orientation: Km means the concentration of substrate that gives half-maximal velocity. Regarding `CC(N)=O` [Acetamide], the Km was 0.2 mM.

Regarding `C=CC(N)=O` [Acrylamide], the Km was 10 mM.
